Results reported in patent US20250019370A1, “L-LYSINE SALT OF 4-CHLORO-5-[4-(2,6-DICHLOROPHENYL)SULFONYLPIPERAZIN-1-YL]-1-BENZOFURAN-2-CARBOXYLIC ACID AND VARIOUS FORMS THEREOF” (ENYO PHARMA, priority 2023, published 2025).

What was measured:
[1] = Pharmacokinetic study Experiment #1, oral administration in rats; type: in vivo, rat; settings: 50 mg EqEYP001/Kg
Protocol: In a first study (Experiment #1), EYP001, EYP001 Meglumine salt, and EYP001 L-lysine salt Form I in aqueous formulations (0.5% CMC, 0.25% Tween 80, water) were orally administrated at a dose of 50 mg EqEYP001/Kg in 3 male rats for each compound. Blood samples were taken at 0.25 h, 0.5 h, 1 h, 2 h, 4 h, 6 h, 8 h, 12 h, and 24 h after oral administration.

[2] = Polymorph screening (solids analysed by XRPD); type: physicochemical; settings: form I as starting material
Protocol: A polymorph screening was performed on EYP001 L-lysine salt crystalline form I (form I as starting material unless otherwise specified).
A number of unique materials with different patterns were produced, including crystalline forms I-IV and an amorphous material. All solids from the screening experiments were analysed by XRPD analysis and the resulting patterns compared to that of the reference. The observed solids and their ways of obtention are described in Table 16.

[3] = male rats, versus EYP001 free acid
[4] = Entry 1: no solvent, 23% RH stress
[5] = Entry 2: no solvent, 40° C./75% RH stress
[6] = Entry 3: no solvent, 59% RH stress
[7] = Entry 7: no solvent, melt quench
[8] = Entry 8: no solvent, compression
[9] = Entry 13: DMSO, slurry (20° C.)
[10] = Entry 14: EtOAc, slurry (5° C.)
[11] = Entry 15: water, slurry (5° C.)
[12] = Entry 16: THF, flash evaporation
[13] = Entry 17: THF, flash evaporation
[14] = Entry 18: acetone, flash evaporation
[15] = Entry 19: DMSO, flash evaporation
[16] = Entry 20: EtOAc, flash evaporation
[17] = Entry 21: IPA, flash evaporation
[18] = Entry 22: water, flash evaporation
[19] = Entry 23: MeOH, flash evaporation
[20] = Entry 24: EtOH, flash evaporation
[21] = Entry 25: heptane, flash evaporation
[22] = Entry 26: EtOH, flash evaporation
[23] = Entry 27: THF/water (82:18% v/v), flash evaporation
[24] = Entry 29: acetone, slurry (5° C.)
[25] = Entry 30: DMSO, slurry (20° C.)
[26] = Entry 31: EtOAc, slurry (5° C.)
[27] = Entry 33: water, slurry (5° C.)
[28] = Entry 36: heptane, slurry (5° C.)

NCCCC[C@H](N)C(=O)O.O=C(O)c1cc2c(Cl)c(N3CCN(S(=O)(=O)c4c(Cl)cccc4Cl)CC3)ccc2o1 [EYP001 L-lysine salt Form I, L-lysine salt of 4-chloro-5-[4-(2,6-dichlorophenyl)sulfonylpiperazin-1-yl]-1-benzofuran-2-carboxylic acid]
superior exposure: exposure (AUC0-24) compared to EYP001 free acid and EYP001 Meglumine salt ([1]; rat)
+15%: % increase/EYP001 (AUC0-24) [1, 3]
Form IV: XRPD ([2]; Entry 34: MeOH, slurry (5° C.))
higher C max: C max compared to EYP001 free acid and EYP001 Meglumine salt ([1]; rat)
no solid: Results [2, 12]
solid: Results [2, 4] | Results [2, 5] | Results [2, 6] | Results [2, 7] | Results [2, 8] | Results ([2]; Entry 10: no solvent, milling) | Results ([2]; Entry 12: THF, slurry (50° C.)) | Results [2, 9] | Results [2, 10] | Results [2, 11] | Results [2, 13] | Results [2, 14] | Results [2, 15] | Results [2, 16] | Results [2, 17] | Results [2, 18] | Results [2, 19] | Results [2, 20] | Results [2, 21] | Results [2, 22] | Results [2, 23] | Results ([2]; Entry 28: THF, slurry (5° C.)) | Results [2, 24] | Results [2, 25] | Results [2, 26] | Results ([2]; Entry 32: IPA, slurry (5° C.)) | Results [2, 27] | Results ([2]; Entry 34: MeOH, slurry (5° C.)) | Results ([2]; Entry 35: EtOH, slurry (5° C.)) | Results [2, 28] | Results ([2]; Entry 37: THF/water (82:18% v/v), slurry (5° C.))
Form II: XRPD [2, 13] | XRPD [2, 21]
Form III: XRPD [2, 11] | XRPD [2, 27]
Form I: XRPD [2, 4] | XRPD [2, 5] | XRPD [2, 6] | XRPD [2, 8] | XRPD [2, 9] | XRPD [2, 10] | XRPD [2, 15] | XRPD [2, 18] | XRPD [2, 19] | XRPD [2, 20] | XRPD [2, 22] | XRPD [2, 23] | XRPD ([2]; Entry 28: THF, slurry (5° C.)) | XRPD [2, 24] | XRPD [2, 26] | XRPD ([2]; Entry 32: IPA, slurry (5° C.)) | XRPD ([2]; Entry 35: EtOH, slurry (5° C.))
Amorphous: XRPD [2, 7] | XRPD ([2]; Entry 10: no solvent, milling) | XRPD ([2]; Entry 12: THF, slurry (50° C.)) | XRPD [2, 12] | XRPD [2, 14] | XRPD [2, 16] | XRPD [2, 17] | XRPD [2, 25] | XRPD [2, 28]
+26%: % increase/EYP001 (Cmax) [1, 3]
60011 ng·h/mL: Mean AUC0-24 ([1]; male rats, aqueous formulation)
8827 ng/mL: Mean Cmax ([1]; male rats, aqueous formulation)
